{"source": "patent US20230074252A1", "about": "“DOSAGES AND METHODS FOR TREATING PULMONARY ARTERIAL HYPERTENSION WITH RODATRISTAT” (Altavant Sciences GmbH, priority 2020, published 2023)", "assay_in_all_cases": "Transporter inhibition, transporter-expressing in vitro system", "type_in_all_cases": "in vitro ADME", "key": {"MATE2-K": {"target": "MATE2-K (Homo sapiens, UniProt Q86VL8)", "sequence (Q86VL8 1-566 isoform Q86VL8-3)": "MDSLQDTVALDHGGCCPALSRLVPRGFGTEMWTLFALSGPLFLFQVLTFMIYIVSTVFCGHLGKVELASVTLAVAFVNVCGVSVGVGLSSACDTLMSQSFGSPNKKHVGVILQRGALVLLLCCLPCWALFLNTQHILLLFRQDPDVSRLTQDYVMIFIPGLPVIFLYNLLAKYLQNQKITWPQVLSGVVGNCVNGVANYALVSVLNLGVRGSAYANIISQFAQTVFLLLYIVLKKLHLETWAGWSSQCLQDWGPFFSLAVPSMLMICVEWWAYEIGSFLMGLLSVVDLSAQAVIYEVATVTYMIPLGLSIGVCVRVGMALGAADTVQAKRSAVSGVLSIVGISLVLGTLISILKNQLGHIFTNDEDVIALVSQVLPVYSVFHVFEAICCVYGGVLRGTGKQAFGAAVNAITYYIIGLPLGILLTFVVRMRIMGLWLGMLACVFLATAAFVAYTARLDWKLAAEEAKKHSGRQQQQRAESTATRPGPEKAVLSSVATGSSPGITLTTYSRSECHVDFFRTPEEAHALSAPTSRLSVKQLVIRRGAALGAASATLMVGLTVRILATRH", "conditions": "for Potential for interaction? (transporter inhibitor), MATE2-K: predicted @ 600 mg BID", "description": "(§1) The competitive inhibition of specific transporters was investigated for RVT-1201 and KAR5417 in transporter-expressing in vitro systems (XT158039). Inhibition of P-gp was evaluated using a Caco-2 cell line with digoxin as probe substrate. Inhibition of OATP1B1 and OATP1B3 was evaluated using a HEK293 cell line expressing these transporters with estradiol-17β-glucuronide as probe substrate. In addition, inhibition of other transporters was also investigated (BCRP, OAT1, OAT3, OCT2, MATE1, MATE2-K). The IC50 estimates for P-gp (RVT-1201) and OATP1B1/3 (RVT-1201 and KAR5417) supported further evaluation of inhibition DDI potential using the PBPK model. For each IC50 estimate, substrate concentration and Km were used to estimate RVT-1201 and KAR5417 Ki with Equation 1 (Cheng and Prusoff, 1973)."}, "OAT3": {"target": "T1, OAT3 (Homo sapiens, UniProt Q8TCC7)", "T1 sequence (Q8TCC7 1-542)": "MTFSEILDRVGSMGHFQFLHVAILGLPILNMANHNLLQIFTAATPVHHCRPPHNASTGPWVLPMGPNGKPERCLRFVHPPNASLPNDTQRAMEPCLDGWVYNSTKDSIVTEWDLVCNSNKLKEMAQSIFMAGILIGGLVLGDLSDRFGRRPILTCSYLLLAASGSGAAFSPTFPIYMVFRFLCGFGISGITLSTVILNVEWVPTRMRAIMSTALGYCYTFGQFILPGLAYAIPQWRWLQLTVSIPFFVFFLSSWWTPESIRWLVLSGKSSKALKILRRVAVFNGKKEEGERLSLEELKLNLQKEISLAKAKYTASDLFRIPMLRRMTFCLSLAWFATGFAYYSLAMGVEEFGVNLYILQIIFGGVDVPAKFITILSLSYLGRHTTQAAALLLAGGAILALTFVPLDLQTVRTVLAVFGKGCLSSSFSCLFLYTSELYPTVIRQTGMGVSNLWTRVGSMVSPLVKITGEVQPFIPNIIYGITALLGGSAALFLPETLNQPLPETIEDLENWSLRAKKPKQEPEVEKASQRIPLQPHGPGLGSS", "conditions": "for Potential for interaction? (transporter inhibitor), OAT3: predicted @ 600 mg BID", "description": "as §1"}, "MATE1": {"target": "T2, MATE1 (Homo sapiens, UniProt Q96FL8)", "T2 sequence (Q96FL8 1-570)": "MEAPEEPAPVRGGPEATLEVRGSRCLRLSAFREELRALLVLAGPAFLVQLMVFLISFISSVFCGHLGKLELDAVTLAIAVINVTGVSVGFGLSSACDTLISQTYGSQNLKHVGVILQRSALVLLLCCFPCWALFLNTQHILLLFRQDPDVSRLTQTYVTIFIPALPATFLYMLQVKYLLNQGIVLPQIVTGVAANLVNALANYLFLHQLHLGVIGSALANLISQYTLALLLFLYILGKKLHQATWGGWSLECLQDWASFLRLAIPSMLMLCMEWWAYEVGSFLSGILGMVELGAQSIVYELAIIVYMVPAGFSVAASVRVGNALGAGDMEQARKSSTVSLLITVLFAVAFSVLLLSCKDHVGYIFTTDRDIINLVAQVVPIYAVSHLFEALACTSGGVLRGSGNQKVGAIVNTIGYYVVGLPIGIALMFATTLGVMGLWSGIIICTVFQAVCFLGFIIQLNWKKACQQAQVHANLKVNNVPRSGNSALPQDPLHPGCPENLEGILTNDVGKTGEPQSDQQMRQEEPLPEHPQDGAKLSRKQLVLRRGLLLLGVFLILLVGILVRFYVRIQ", "conditions": "for Potential for interaction? (transporter inhibitor), MATE1: predicted @ 600 mg BID", "description": "as §1"}, "OCT2": {"target": "T3, OCT2 (Homo sapiens, UniProt O15244)", "T3 sequence (O15244 1-555)": "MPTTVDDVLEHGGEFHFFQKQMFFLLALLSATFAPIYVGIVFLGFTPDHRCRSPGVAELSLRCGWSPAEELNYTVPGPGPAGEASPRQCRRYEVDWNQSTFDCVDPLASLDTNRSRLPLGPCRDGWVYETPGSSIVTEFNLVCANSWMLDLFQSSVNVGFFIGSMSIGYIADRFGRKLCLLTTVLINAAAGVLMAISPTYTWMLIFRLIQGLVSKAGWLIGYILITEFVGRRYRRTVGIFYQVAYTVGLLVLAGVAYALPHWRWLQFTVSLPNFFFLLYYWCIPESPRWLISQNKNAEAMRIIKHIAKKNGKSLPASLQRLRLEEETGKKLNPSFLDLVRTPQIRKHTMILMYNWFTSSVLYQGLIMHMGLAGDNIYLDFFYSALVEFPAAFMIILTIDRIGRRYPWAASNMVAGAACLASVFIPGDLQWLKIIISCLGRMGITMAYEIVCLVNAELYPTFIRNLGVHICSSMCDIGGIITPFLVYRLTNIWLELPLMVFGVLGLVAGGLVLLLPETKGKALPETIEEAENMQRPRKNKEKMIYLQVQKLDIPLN", "conditions": "for pIC50: concentrations of up to 20 μM; for Potential for interaction? (transporter inhibitor), OCT2: predicted @ 600 mg BID", "description": "as §1"}, "BCRP": {"target": "T4, BCRP (Homo sapiens, UniProt Q9UNQ0)", "T4 sequence (Q9UNQ0 1-655)": "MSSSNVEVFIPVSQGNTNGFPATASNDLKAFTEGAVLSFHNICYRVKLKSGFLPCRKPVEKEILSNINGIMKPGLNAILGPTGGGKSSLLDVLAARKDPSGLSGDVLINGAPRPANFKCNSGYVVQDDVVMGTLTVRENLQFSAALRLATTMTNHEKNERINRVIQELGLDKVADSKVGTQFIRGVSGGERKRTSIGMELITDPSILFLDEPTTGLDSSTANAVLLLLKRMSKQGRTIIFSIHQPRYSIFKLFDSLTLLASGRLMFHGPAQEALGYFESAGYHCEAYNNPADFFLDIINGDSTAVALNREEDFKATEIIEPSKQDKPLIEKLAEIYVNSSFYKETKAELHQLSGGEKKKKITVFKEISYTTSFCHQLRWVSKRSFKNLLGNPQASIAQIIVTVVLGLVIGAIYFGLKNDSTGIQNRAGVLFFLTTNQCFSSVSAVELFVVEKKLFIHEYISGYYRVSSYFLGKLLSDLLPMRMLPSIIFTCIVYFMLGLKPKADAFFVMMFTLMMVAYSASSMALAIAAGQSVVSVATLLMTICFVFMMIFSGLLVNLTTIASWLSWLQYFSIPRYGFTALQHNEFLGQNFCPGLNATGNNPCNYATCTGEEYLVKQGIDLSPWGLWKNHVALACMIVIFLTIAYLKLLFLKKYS", "conditions": "for Potential for interaction? (transporter inhibitor), BCRP: predicted @ 600 mg BID", "description": "as §1"}}, "note": "pIC50: −log10 of the molar value. Like-named read-outs stand apart in the source and are kept apart here."}
{"compound": "CCOC(=O)[C@@H]1CC2(CCN(c3cc(O[C@H](c4ccc(Cl)cc4-c4ccccc4)C(F)(F)F)nc(N)n3)CC2)CN1", "note": "[Rodatristat ethyl, (S)-ethyl 8-(2-amino-6-((R)-1-(5-chloro-[1,1′-biphenyl]-2-yl)-2,2,2-trifluoroethoxy)pyrimidin-4-yl)-2,8-diazaspiro[4.5]decane-3-carboxylate]", "values": [{"measurement": "Potential for interaction? (transporter inhibitor), MATE2-K", "setting": "MATE2-K", "value": "No"}, {"measurement": "Inhibition of OAT3 (in words)", "setting": "OAT3", "value": "Neither rodatristat ethyl nor rodatristat inhibited"}, {"measurement": "Potential for interaction? (transporter inhibitor), OAT3", "setting": "OAT3", "value": "No"}, {"measurement": "Potential for interaction? (transporter inhibitor), MATE1", "setting": "MATE1", "value": "No"}, {"measurement": "pIC50", "setting": "OCT2", "value": "< 4.70"}, {"measurement": "Potential for interaction? (transporter inhibitor), OCT2", "setting": "OCT2", "value": "No"}, {"measurement": "Inhibition of BCRP (in words)", "setting": "BCRP", "value": "not an inhibitor"}, {"measurement": "Inhibition of BCRP (in words)", "setting": "BCRP; listed as rodatristat ethyl", "value": "Neither rodatristat ethyl nor rodatristat inhibited"}, {"measurement": "Potential for interaction? (transporter inhibitor), BCRP", "setting": "BCRP", "value": "No"}]}
{"compound": "Nc1nc(O[C@H](c2ccc(Cl)cc2-c2ccccc2)C(F)(F)F)cc(N2CCC3(CC2)CN[C@H](C(=O)O)C3)n1", "note": "[Rodatristat, (S)-8-(2-amino-6-((R)-1-(5-chloro-[1,1′-biphenyl]-2-yl)-2,2,2-trifluoroeth-oxy)pyrimidin-4-yl)-2,8-diazaspiro[4.5]decane-3-carboxylic acid]", "values": [{"measurement": "Potential for interaction? (transporter inhibitor), MATE2-K", "setting": "MATE2-K", "value": "No"}, {"measurement": "Inhibition of MATE2-K (in words)", "setting": "MATE2-K; up to 30 μM nominal concentration", "value": "did not inhibit"}, {"measurement": "Inhibition of OAT3 (in words)", "setting": "OAT3", "value": "Neither rodatristat ethyl nor rodatristat inhibited"}, {"measurement": "Potential for interaction? (transporter inhibitor), OAT3", "setting": "OAT3", "value": "No"}, {"measurement": "Potential for interaction? (transporter inhibitor), MATE1", "setting": "MATE1", "value": "No^a"}, {"measurement": "inhibition at 30 µM", "setting": "MATE1; transporter-expressing in vitro system (MATE1), nominal 30 μM", "value": 30, "unit": "%"}, {"measurement": "pIC50", "setting": "OCT2", "value": "< 4.70"}, {"measurement": "Potential for interaction? (transporter inhibitor), OCT2", "setting": "OCT2", "value": "No"}, {"measurement": "Inhibition of BCRP (in words)", "setting": "BCRP", "value": "not an inhibitor"}, {"measurement": "Inhibition of BCRP (in words)", "setting": "BCRP; listed as rodatristat", "value": "Neither rodatristat ethyl nor rodatristat inhibited"}, {"measurement": "Potential for interaction? (transporter inhibitor), BCRP", "setting": "BCRP", "value": "No"}]}
